Test results: patent publication US20120245031A1, “Pesticidal Mixtures” (BASF SE, priority 2009, published 2012)

What was measured:
Assay type in all cases: in vivo
[1] = system: wheat plants of the imidazolinone tolerant variety ‘BW755’; experiment: Transpiration (water loss) of cut wheat plants as indicator for drought tolerance, fluxapyroxad / imazamox (Example 1); conditions: solo; for Mean water loss: 24 h at 25° C.; for Observed efficacy: decrease of water loss vs control, 24 h
Protocol: The transpiration of wheat plants treated or not treated with fluxapyroxad solo, imazamox solo, and mixtures thereof was assessed as an indicator for drought tolerance. 10 to 14 days old wheat plants were cut above the ground and placed into Eppendorf caps containing 2.2 ml of the test solution. The wheat plants were incubated for 24 h at 25° C. and 50% relative humidity in a growth chamber. The weight of the Eppendorf cap including the test solution but excluding the plant was assessed before and after incubation. The difference in weight is recorded as the loss of water through transpiration. This assay can be used to asses the drought tolerance of plants.
(§1) In the present example wheat plants of the imidazolinone tolerant variety ‘BW755’ were grown at 18° C. for 10 days in the greenhouse prior to the treatment and the incubation. 10 plants per treatment were treated and incubated as described. Fluxapyroxad and imazamox were dissolved in 0.5% DMSO. The 0.5% DMSO solution consisted of 0.5% DMSO dissolved in water. The tested concentrations are described in table 2. Control plants were treated with the blank 0.5% DMSO solution only.
The efficacy of the tested compounds and respective mixtures was calculated as % of water loss compared to the control: […]
(§2) a corresponds to water loss of plants after incubation in the treated plants in g and b corresponds to water loss of plants after incubation in the control in g.

[2] = system: potted imidazolinone tolerant wheat, variety ‘BW755’; experiment: Greenhouse pot trial, total shoot biomass (dry weight) of wheat, fluxapyroxad / imazamox (Example 2); conditions: solo; for Shoot dry weight: 7 days following the last treatment; for Observed efficacy: increase of biomass vs untreated control
Protocol: (§3) Wheat was grown in 2010 in the greenhouse at the agricultural center at Limburgerhof, Germany. The imidazolinone tolerant variety ‘BW755’ was planted in pots. The trial was setup with 8 replications with one pot 10 plants each per replication.
(§4) The active ingredients were used as formulations. The formulations were used in the product rates given below and in table 3. The products were applied in a total spray volume of 375 l/ha. Products were diluted in water. The spray solution was applied in a spray cabinet using a spray boom with flat fan nozzles.
Imazamox was applied once as Raptor™ (120 g active per liter soluble concentrate) when the wheat plants had the first leaf fully developed (BBCH 11). Fluxapyroxd was applied once as an experimental emulsion concentrate (62.5 g active ingredient per liter) at 2 to 3 leaves fully developed (BBCH 12/13). The application of the mixture was carried out as a sequence, wherein Raptor™ was applied when the first leave had developed while the fluxapyroxad formulation was applied when 2-3 leaves had developed.
(§5) Total shoot biomass was assessed (table 3) by harvesting all plants of a pot 7 days following the last treatment (expressed as g per pot). Afterwards, dry weight of total shoot biomass per pot was evaluated. After measuring fresh weight, the samples were dried in a drying cabinet at 65° C. for two days. The efficacy was calculated as % increase of biomass in the treatments compared to the untreated control:
(§6) a corresponds to the biomass of the treated plants in g/pot and b corresponds to the biomass of the untreated (control) plants in g/pot

[3] = system: wheat plants of the imidazolinone tolerant variety ‘BW755’; experiment: Transpiration (water loss) of cut wheat plants as indicator of drought tolerance, fluxapyroxad / imazethapyr (Example 3); conditions: for Mean water loss / Observed efficacy: solo; for Mean water loss: 24 h; for Observed efficacy: decrease of water loss vs control
Protocol: The transpiration as an indicatior of drought tolerance of wheat plants treated or not treated with fluxapyroxad solo, imazethapyr solo, and mixtures thereof was assessed. 10 to 14 days old wheat plants were cut above the ground and placed into Eppendorf caps containing 2.2 ml of the test solution. The wheat plants were incubated for 24 h at 25° C. and 50% relative humidity in a growth chamber. The weight of the Eppendorf cap including the test solution but excluding the leaves was assessed before and after incubation. The difference in weight was recorded as the loss of water through transpiration. This assay is generally used to asses the drought tolerance of plants.
as §1, with “imazethapyr” for “imazamox”, “are as” for “are”, “4.” for “2.”
The efficacy of the tested compounds and mixtures was calculated as % of water loss compared to the control: […]
as §2

[4] = system: potted imidazolinone tolerant wheat, variety ‘BW755’; experiment: Greenhouse pot trial, total shoot biomass (dry weight) of wheat, fluxapyroxad / imazethapyr (Example 4); conditions: solo; for Shoot dry weight: 7 days after the last treatment; for Observed efficacy: increase of biomass vs untreated control
Protocol: as §3
as §4, with “6.” for “3.”
Imazethapyr was applied once as PIVOT 100 SL™ (100 g active per liter soluble concentrate) when the wheat plants had the first leaf fully developed (BBCH 11). Fluxapyroxd was applied once as an experimental emulsion concentrate (62.5 g active ingredient per liter) when 2 to 3 leaves were fully developed (BBCH 12/13). The application of the mixture was applied as a sequence of PIVOT 100 SL™ at the stage when the first leave had developed and while the fluxapyroxad formulation was applied when 2-3 leaves had developed.
as §5, with “6)” for “3)”, “after” for “following”, “Dry” for “Afterwards, dry”
as §6

[5] = 10 ppm, first experiment (table 4)
[6] = 10 ppm, repeated experiment (table 5)
[7] = 50 ppm, first experiment (table 4)
[8] = 100 ppm, first experiment (table 4)
[9] = 100 ppm, repeated experiment (table 5)
[10] = 1 ppm, first experiment (table 4)
[11] = 500 ppm, first experiment (table 4)

For Cn1cc(C(=O)Nc2ccccc2-c2cc(F)c(F)c(F)c2)c(C(F)F)n1 [Fluxapyroxad, N-(3′,4′,5′-trifluorobiphenyl-2-yl)-3-difluoromethyl-1-methyl-1H-pyrazole-4-carboxamide], the Mean water loss ([1]; 50 ppm) was 0.794 g, the Observed efficacy ([1]; 50 ppm) was 17.68% and the Observed efficacy ([1]; 50 ppm, listed as fluxapyroxad) was “about 18%”. The Shoot dry weight ([2]; 10.00 g/ha) was 0.619 g/pot, the Observed efficacy ([2]; 10.00 g/ha) was 3.80% and the Shoot dry weight ([2]; 50.00 g/ha) was 0.604 g/pot. The Observed efficacy ([2]; 50.00 g/ha) was 1.41%, the Shoot dry weight ([2]; 100.00 g/ha) was 0.604 g/pot and the Observed efficacy ([2]; 100.00 g/ha) was 1.30%. The Mean water loss [3, 5] was 0.853 g, the Mean water loss [3, 6] was 1.266 g and the Observed efficacy [3, 5] was 14.59%. For the same compound, the Observed efficacy [3, 6] was 10.46%, the Mean water loss [3, 7] was 0.728 g and the Observed efficacy [3, 7] was 27.16%. The Mean water loss [3, 8] was 0.647 g, the Mean water loss [3, 9] was 0.628 g and the Observed efficacy [3, 8] was 35.22%. The Observed efficacy [3, 9] was 55.60%, the Shoot dry weight ([4]; 10 g/ha) was 0.638 g/pot and the Observed efficacy ([4]; 10 g/ha) was −4.75%. It also gave a Shoot dry weight ([4]; 50 g/ha) of 0.617 g/pot, an Observed efficacy ([4]; 50 g/ha) of −7.88% and a Shoot dry weight ([4]; 100 g/ha) of 0.649 g/pot. For the same compound, the Observed efficacy ([4]; 100 g/ha) was −3.16%.

In the case of COCc1cnc(C2=NC(C)(C(C)C)C(=O)N2)c(C(=O)O)c1 (stereo not shown) [Imazamox, imazamox], the Mean water loss ([1]; 50 ppm) was 0.907 g, the Observed efficacy ([1]; 50 ppm) was 5.92% and the Mean water loss ([1]; 100 ppm) was 0.855 g. The Observed efficacy ([1]; 100 ppm) was 11.32%, the Mean water loss ([1]; 150 ppm) was 1.001 g and the Observed efficacy ([1]; 150 ppm) was −3.88%. For the same compound, the Shoot dry weight ([2]; 8.75 g/ha) was 0.631 g/pot, the Observed efficacy ([2]; 8.75 g/ha) was 5.83% and the Observed efficacy ([2]; 8.75 g/ha, listed as imazamox) was “about 6%”. The Shoot dry weight ([2]; 17.50 g/ha) was 0.559 g/pot, the Observed efficacy ([2]; 17.50 g/ha) was −6.29% and the “reduction of dry biomass” value ([2]; 35 g imazamox per ha) was “about 14%”. It also gave a Shoot dry weight ([2]; 35.00 g/ha) of 0.513 g/pot and an Observed efficacy ([2]; 35.00 g/ha) of −13.93%.

In the case of CCc1cnc(C2=NC(C)(C(C)C)C(=O)N2)c(C(=O)O)c1 (stereo not shown) [Imazethapyr, imazethapyr], the Mean water loss [3, 10] was 1.249 g, the Observed efficacy [3, 10] was −25.04% and the Mean water loss [3, 6] was 1.435 g. For the same compound, the Observed efficacy [3, 6] was −1.52%, the Mean water loss [3, 11] was 0.878 g and the Observed efficacy [3, 11] was 12.12%. For the same compound, the “effect on water loss, in words” value ([3]; alone at 10 ppm, second experiment, table 5) was “tended to be neutral”, the “reduction of dry biomass” value ([4]; 17.5 g imazethapyr per ha) was “about 1%” and the Shoot dry weight ([4]; 17.5 g/ha) was 0.665 g/pot. The Observed efficacy ([4]; 17.5 g/ha) was −0.72%, the “reduction of dry biomass” value ([4]; 35 g imazethapyr per ha) was “about 9%” and the Shoot dry weight ([4]; 35 g/ha) was 0.609 g/pot. The Observed efficacy ([4]; 35 g/ha) was −9.07%.
